Series [1] deals with S. mutans (ATCC 25175) biofilm. The experiment in a line: S. mutans biofilm growth study by CFU count on coated and bulk substrates (Example 4). The series is classed as cell-based, Streptococcus mutans. On the procedure:
Coating formulations of OH-AAZO were prepared in THF, all others were prepared in DMF. The THF volume was kept constant (1 mL) and the mass of OH-AAZO monomer was varied to attain the desired concentration. In addition to the OH-AAZO monomer, the coating also consisted of AIBN (2 wt. % relative to the mass of the monomer), and Rhodamine B (0.2 wt. % relative to the mass of the monomer).
Once cured, the MMA:TEGDMA:PMMA base polymers were placed into a mount on a square glass microscope slide. 3 μL of the coating formulation was added via pipette to one side of the substrate and spin coated (1000 rpm for 1 min, 6000 rpm for 3 min), then the process was repeated on the other side. Once both sides were coated, they were placed in an oven for 3 h at 100° C., then under vacuum for an additional 0.5 h.
Bulk OH-AAZO formulations were prepared using the acrylic base polymer method with the addition of the appropriate weight percentage of OH-AAZO (relative to the total mass of the formulation) and AIBN (rather than camphorquinone/amine, 2 wt. %). The components were stirred at room temperature until completely dissolved. The formulations were pipetted into the rubber spacer and cured for 1 h at 100° C. Conversion rates were observed via FT-IR.
Following curing, residual monomer was aqueously extracted by autoclaving (20 psi, 128° C.) for 1 h in MilliQ water (approx. 5 mL water per substrate). The MilliQ water was replaced with fresh water (approx. 5 mL water per substrate) and placed in an 80° C. oven for 2 h. The substrates were blotted dry and analyzed via UV-Vis spectroscopy to confirm the relative amount of the coating (FIG. 9). All coated and bulk substrates were autoclaved prior to their use with both mammalian and bacterial cells.
S. mutans biofilms were grown from a 24 h BHI liquid culture inoculated with an isolated S. mutans colony. The liquid culture was diluted 1:50 in BHI media containing 1 wt. % sucrose in each well in a 96-well plate containing a substrate of interest. The plate was incubated in the dark at 37° C. and 5% CO2 for the necessary amount of time (t=24 h, 48 h, 72 h, depending on the experiment).
(§1) Following biofilm growth in the 96-well plate, the substrates were aseptically removed from the 96-well plate and placed in a vial containing 5 mL of 1× PBS solution. The vials were sonicated in a water bath for 10 min at 45° C., and the wells that previously contained the substrates were briefly sonicated using a probe sonicator (3 W RMS output) for 10 s per well. 200 μL aliquots of the sonicated PBS solution were placed in a 96-well plate and diluted 1:10 in each subsequent row. 20 μL aliquots of the sonicated media wells were placed in a 96-well plate containing 180 μL of PBS solution and diluted 1:10 in each subsequent row. Each column was then plated at a volume of 10 μL on a BHI agar plate in triplicate. The plates were then incubated at 37° C. and 5% CO2 for 48 h. The CFUs on each plate were counted in order to quantify the amount of biofilm remaining on the surface of the substrate and the bacteria remaining in the media after the removal of the substrate using the following equations: […]

In series [2] the test system is S. agalactiae (Group B strep, GBS). The series is described as follows: Growth study, S. agalactiae (Group B strep). Conditions: 50 mg/ML coated substrates, BHI media, 24 h time-period. In kind it is cell-based, Streptococcus agalactiae. On the procedure: (§2) A single bacterial colony was inoculated in 4 mL BHI media. The colony was grown to mid-log phase (to approximately OD600=0.4), statically at 37° C., which for was approximately 4 hours for the S. agalactiae GBS, approximately 11 hours for the S. pyogenes GAS, and approximately 6 hours for the S. pneumaoniae. They were diluted 1:5 in 80% glycerol (in water) solution (4 parts culture, 1 part glycerol, for a final glycerol concentration of 16%). In a 96-well plate, each was diluted to 1:100 resulting in a final concentration of 1×10^6 CFU/mL and grown at 37° C. with 5% CO2.

In another series the test system is S. mutans biofilm. The experiment in a line: Live-dead stain microscopy of S. mutans biofilms (Example 4). In kind it is cell-based, Streptococcus mutans. On the procedure:
Microscope images were obtained using a Zeiss digital microscope at 6300× magnification using the FITC and CY3 channels. Following biofilm growth, the substrates were placed in a solution of live-dead stains (Invitrogen BacLight™) containing 1.5 μL Component A (SYTO® 9, green fluorescent nucleic acid stain) and 1.5 μL Component B (propidium iodide, red fluorescent nucleic acid stain) in 200 μL of sterile water. The substrates were soaked for 3 min, then gently washed in sterile water for 10 s, dried, and fixed to a glass slide prior to imaging.

The test system of another series is E. coli biofilm. The series is described as follows: Biofilm growth study, E. coli. Conditions: 50 mg/mL coated substrate, 24 h time-period. The series is classed as cell-based, Escherichia coli. On the procedure: E. coli biofilms were grown from a 20 h BHI inoculated with an E. coli colony. The liquid culture was diluted 10^3 to a stock solution in BHI, then diluted 1:10 in BHI media in a 96-well plate. The plate was incubated in the dark at 37° C. for 24 h.
as §1

The subject of series [3] is S. pneumoniae (Pneumonococcus, Pn). The series is described as follows: Growth study, S. pneumoniae. The series is classed as cell-based, Streptococcus pneumoniae. Conditions: 50 mg/ML coated substrates, BHI media, 24 h time-period. The protocol: as §2
The subject of series [4] is L929 mouse epithelial cells. The series is described as follows: Cytotoxicity study, MTT (Example 4). In kind it is cell-based. Conditions: 50 mg/mL coated substrates. On the procedure: Cytotoxicity studies were performed as described previously. Riss et al., Cell Viability Assays, (Promega). Briefly, L929 mouse epithelial cells were suspended in cell culture media (DMEM, 10% FBS, 1% penicillin streptomycin) to a final concentration of 1.06×10^5 cells/mL. 1 mL of the suspension was added to each well in a 24-well plate containing the substrates and allowed to grow to confluence. Cell growth was monitored via a phase contrast inverted microscope (Leica, WLD MPS32, Germany). Once confluent, the media was aspirated off, and 500 μL of a 1 mg/mL solution of MTT reagent in DMEM media was added to each well. The plate was incubated for 4 h, and 500 μL of 20% SDS in 50% DMF was added to each well containing the MTT reagent. The plate was incubated for an additional 24 h, then removed and analyzed by an absorbance reading at λ=570 nm (FIG. 10).

Series [5] has as its system A. actinomycetemcomitans (ATCC 43718) biofilm. The experiment in a line: Biofilm growth study, A. actinomycetemcomitans. Conditions: 50 mg/mL coated substrate, 24 h time-period. The series is classed as cell-based, Aggregatibacter actinomycetemcomitans. On the procedure:
S. oralis and A. actinomycetemcomitans were streaked on a BHI agar plate and incubated at 37° C. and 5% CO2 for 48 h. An isolated colony was inoculated in 5 mL BHI media for 12 h under the same incubation conditions, followed by a 1:10 dilution in BHI media in a 96-well plate containing the substrates of interest. […]
as §1

This is an account of results in US12661308B2, “Antimicrobial AZO compounds and uses thereof” (The Regents Of The University Of Colorado, A Body Corporate, priority 2019, dated 2026).

Entries after “also recorded” stand apart in the source; their conditions may differ.

With `C=CC(=O)Oc1ccccc1/N=N/c1ccccc1O` [OH-AAZO, phenolic acrylated azobenzene], in series [1] (5 mg/mL coating solution, 24 h), the “CFUs of S. mutans biofilm on substrate” value is given as “approximately 1.0×10^8 CFUs”. Further, in series [1] (5 mg/mL coating solution, 24 h), the “difference in CFUs between coated and uncoated substrates” value is given as “no significant difference”. For the same compound, in series [1] (25 mg/mL coating solution, 24 h), the “reduction in CFUs of S. mutans biofilm relative to the uncoated control” value is listed as 4 log. Besides, the “sterility of the substrate (sonication CFU)” value in series [1] (50 mg/mL coated substrates, over 72 h) is on record as “maintained sterility”. Besides, the “bacterial growth in the media surrounding the substrate” value in series [1] (50 mg/mL coated substrates, t=48 h and 72 h) is given as “Some media bacterial growth was observed”. In addition, the “bacterial growth in the surrounding media” value in series [1] (50 mg/ml coated substrate, 24 h) is listed as “absent”; in series [1] (100 mg/ml coated substrate, 24 h), “absent”. Further, the “CFUs of S. mutans biofilm on substrate surface” value in series [1] (100 mg/mL coating solution, 24 h) is reported as “no observable CFUs”. The “CFUs of S. mutans on surface and in surrounding media” value in series [1] (1.5 wt. % OH-AAZO bulk bisGMA:TEGDMA substrate, 24 h) is on record as “no observable CFUs; also recorded: maintained sterility”; in series [1] (2 wt. % OH-AAZO bulk bisGMA:TEGDMA substrate, 24 h), “no observable CFUs; also recorded: maintained sterility”. Moreover, the “prevention of growth of an S. mutans biofilm” value in series [1] (sucrose-dependent conditions) is recorded as “shown to prevent the growth”. In series [2], the “S. agalactiae growth on coated substrate and in media” value was “did not grow on the coated substrate nor in the media”. Moreover, the “live and dead bacteria on substrate, live-dead stain” value in the series on S. mutans biofilm (1.5% OH-AAZO bulk substrate, 24 h) is “high amounts of dead bacteria (lighter) and little to no live bacteria; also recorded: did not grow”; in the series with S. mutans biofilm (2% OH-AAZO bulk substrate, 24 h) it was “high amounts of dead bacteria (lighter) and little to no live bacteria; also recorded: did not grow”; in the series on S. mutans biofilm (coated substrate, 24 h biofilm growth, compared to uncoated control), “high amounts of dead bacteria (lighter) and little to no live bacteria”. The “antibacterial effect on E. coli biofilm (CFUs)” value with E. coli biofilm is given as “no discernable antibacterial effect or reduction in CFUs”. Also, in series [3], the “S. pneumoniae growth on coated substrate and in media” value is “did not grow on the coated substrate nor in the media”. Besides, the cytocompatibility result in series [4] is “cytocompatible”. In series [5], the “antibacterial effect on A. actinomycetemcomitans biofilm (CFUs)” value was “no discernable antibacterial effect or reduction in CFUs”.
